Experimental data taken from patent publication US12065399B2, “Arylsulfonamide derivatives” (Hoffmann-La Roche Inc., priority 2019, dated 2024).
pEC50: −log10 of the molar value. Structures can show the parent of a compound that is named as a salt.

Target: human mGlu4 receptor (Homo sapiens (Human), UniProt Q14833)
Experiment: Intracellular Ca2+ mobilization assay (FLIPR), mGlu4 NAM
Type: cell-based
Conditions: HEK-293 cells stably transfected with human mGlu4; inhibition of L-AP4 (EC80) response; IC50
Procedure: 2.1) Intracellular Ca^2+ Mobilization Assay (FLIPR)
A monoclonal HEK-293 cell line stably transfected with a cDNA encoding for the human mGlu4 receptor was generated. Cells were cultured according to standard protocols (Freshney, 2000) in Dulbecco's Modified Eagle Medium with high glucose supplemented with 1 mM glutamine, 10% (vol/vol) heat-inactivated bovine calf serum, penicillin/streptomycin, 50 μg/ml hygromycin and 15 μg/ml blasticidin (all cell culture reagents and antibiotics from Invitrogen, Basel, Switzerland).
About 24 hrs before an experiment, 5×10^4 cells/well were seeded in poly-D-lysine coated, black/clear-bottomed 96-well plates. The cells were loaded with 2.5 μM Fluo-4AM in loading buffer (1×HBSS, 20 mM HEPES) for 1 hr at 37° C. and washed five times with loading buffer. The cells were transferred into a Functional Drug Screening System 7000 (Hamamatsu, Paris, France), and 11 half logarithmic serial dilutions of test compound at 37° C. were added and the cells were incubated for 10-30 min. with on-line recording of fluorescence. Following this pre-incubation step, the agonist (2S)-2-amino-4-phosphonobutanoic acid (L-AP4) was added to the cells at a concentration corresponding to EC80 with on-line recording of fluorescence; in order to account for day-to-day variations in the responsiveness of cells, the EC80 of L-AP4 was determined immediately ahead of each experiment by recording of a full dose-response curve of L-AP4.
Responses were measured as peak increase in fluorescence minus basal (i.e. fluorescence without addition of L-AP4), normalized to the maximal stimulatory effect obtained with saturating concentrations of L-AP4. Graphs were plotted with the % maximal stimulatory using XLfit, a curve fitting program that iteratively plots the data using Levenburg Marquardt algorithm. The single site competition analysis equation used was y=A+((B-A)/(1+((x/C)D))), where y is the % maximal stimulatory effect, A is the minimum y, B is the maximum y, C is the IC50, x is the log 10 of the concentration of the competing compound and D is the slope of the curve (the Hill Coefficient). From these curves the IC50 (drug concentration at which 50% of the receptor activation achieved from the addition of L-AP4 in the experiment was inhibited), the Hill coefficient as well as the maximal response in % of the maximal stimulatory effect obtained with saturating concentrations of L-AP4 were calculated (see FIG. 1).

Sequence of human mGlu4 receptor (Q14833 33-912): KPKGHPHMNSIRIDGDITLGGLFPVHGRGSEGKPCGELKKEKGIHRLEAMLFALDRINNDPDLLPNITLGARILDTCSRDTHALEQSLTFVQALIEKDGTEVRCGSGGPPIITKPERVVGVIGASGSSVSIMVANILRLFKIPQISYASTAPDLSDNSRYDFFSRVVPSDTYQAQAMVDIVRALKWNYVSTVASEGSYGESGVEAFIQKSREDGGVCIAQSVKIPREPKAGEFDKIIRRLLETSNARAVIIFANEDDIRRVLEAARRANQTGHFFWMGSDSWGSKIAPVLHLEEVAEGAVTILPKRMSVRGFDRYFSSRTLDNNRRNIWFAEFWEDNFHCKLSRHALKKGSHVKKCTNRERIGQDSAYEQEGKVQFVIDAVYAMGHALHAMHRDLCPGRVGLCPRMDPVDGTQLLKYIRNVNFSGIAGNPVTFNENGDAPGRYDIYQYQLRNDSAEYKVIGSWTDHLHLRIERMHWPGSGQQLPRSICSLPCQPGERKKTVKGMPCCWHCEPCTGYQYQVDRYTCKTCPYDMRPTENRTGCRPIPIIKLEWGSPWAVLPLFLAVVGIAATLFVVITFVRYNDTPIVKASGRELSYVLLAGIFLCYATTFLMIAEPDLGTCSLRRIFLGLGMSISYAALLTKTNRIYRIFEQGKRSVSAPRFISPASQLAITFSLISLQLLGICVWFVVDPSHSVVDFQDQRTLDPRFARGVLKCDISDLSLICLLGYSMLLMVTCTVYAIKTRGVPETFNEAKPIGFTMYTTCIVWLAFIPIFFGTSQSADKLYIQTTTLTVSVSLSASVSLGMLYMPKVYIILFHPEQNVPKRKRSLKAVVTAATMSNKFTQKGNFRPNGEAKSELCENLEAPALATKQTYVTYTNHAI

Row | SMILES | pEC50
1 | O=S(=O)(Nc1c(F)cc(C#Cc2ccccc2)cc1F)c1ccccn1 [Example 10, N-[2,6-difluoro-4-(2-phenylethynyl)phenyl]pyridine-2-sulfonamide] | 4.85
2 | Cc1cc(F)c(C)c(S(=O)(=O)Nc2c(F)cc(C#Cc3cccnc3)cc2F)c1 [Example 50, N-[2,6-difluoro-4-[2-(3-pyridyl)ethynyl]phenyl]-3-fluoro-2,5-dimethyl-benzenesulfonamide] | 6.56
3 | COc1c(F)cccc1S(=O)(=O)Nc1c(F)cc(C#Cc2ccccc2)cc1F [Example 46, N-[2,6-difluoro-4-(2-phenylethynyl)phenyl]-3-fluoro-2-methoxy-benzenesulfonamide] | 5.68
4 | COCc1c(Cl)cccc1S(=O)(=O)Nc1c(F)cc(C#Cc2ccccc2)cc1F [Example 32, 3-chloro-N-[2,6-difluoro-4-(2-phenylethynyl)phenyl]-2-(methoxymethyl)benzenesulfonamide] | 5.41
5 | O=S(=O)(Nc1c(F)cc(C#Cc2cncc(F)c2)cc1F)c1ccccc1Cl [Example 12, 2-chloro-N-[2,6-difluoro-4-[2-(5-fluoro-3-pyridyl)ethynyl]phenyl]benzenesulfonamide] | 5.53
6 | Cc1cc(F)c(C)c(S(=O)(=O)Nc2c(F)cc(C#Cc3ccccc3)cc2F)c1 [Example 40, N-[2,6-difluoro-4-(2-phenylethynyl)phenyl]-3-fluoro-2,5-dimethyl-benzenesulfonamide] | 6.09
7 | Cc1cncc(C#Cc2cc(F)c(NS(=O)(=O)c3cccc(Cl)c3C)c(F)c2)c1 [Example 56, 3-chloro-N-[2,6-difluoro-4-[2-(5-methyl-3-pyridyl)ethynyl]phenyl]-2-methyl-benzenesulfonamide; 2,2,2-trifluoroacetic acid] | 5.83
8 | CC(C)(C)c1cnn(-c2cc(F)c(NS(=O)(=O)c3cc(Cl)cc(Cl)c3)c(F)c2)c1 [Example 60, N-[4-(4-tert-butylpyrazol-1-yl)-2,6-difluoro-phenyl]-3,5-dichloro-benzenesulfonamide] | 5.17
9 | O=S(=O)(Nc1c(F)cc(C#Cc2cccnc2)cc1F)c1ccccc1Cl [Example 9, 2-chloro-N-[2,6-difluoro-4-[2-(3-pyridyl)ethynyl]phenyl]benzenesulfonamide] | 4.85
10 | Cc1c(Cl)cc(F)cc1S(=O)(=O)Nc1c(F)cc(C#Cc2cncc(F)c2)cc1F [Example 53, 3-chloro-N-[2,6-difluoro-4-[2-(5-fluoro-3-pyridyl)ethynyl]phenyl]-5-fluoro-2-methyl-benzenesulfonamide] | 6.28
11 | Cc1c(Cl)cccc1S(=O)(=O)Nc1c(F)cc(C#Cc2cccc(F)c2)cc1F [Example 43, 3-chloro-N-[2,6-difluoro-4-[2-(3-fluorophenyl)ethynyl]phenyl]-2-methyl-benzenesulfonamide] | 5.89
12 | COc1ccc(Cl)c(S(=O)(=O)Nc2c(F)cc(C#Cc3ccccc3)cc2F)c1 [Example 18, 2-chloro-N-[2,6-difluoro-4-(2-phenylethynyl)phenyl]-5-methoxy-benzenesulfonamide] | 5.40
13 | COc1cccc(S(=O)(=O)Nc2c(F)cc(C#Cc3ccccc3)cc2F)c1Cl [Example 27, 2-chloro-N-[2,6-difluoro-4-(2-phenylethynyl)phenyl]-3-methoxy-benzenesulfonamide] | 5.07
14 | Cc1ccccc1S(=O)(=O)Nc1c(F)cc(C#Cc2ccccc2)cc1F [Example 5, N-[2,6-difluoro-4-(2-phenylethynyl)phenyl]-2-methyl-benzenesulfonamide] | 5.43
15 | Cc1c(Cl)cccc1S(=O)(=O)Nc1c(F)cc(C#Cc2cncc(F)c2)cc1F [Example 52, 3-chloro-N-[2,6-difluoro-4-[2-(5-fluoro-3-pyridyl)ethynyl]phenyl]-2-methyl-benzenesulfonamide] | 6.12
16 | Cn1nccc1S(=O)(=O)Nc1c(F)cc(C#Cc2cncc(F)c2)cc1F [Example 39, N-[2,6-difluoro-4-[2-(5-fluoro-3-pyridyl)ethynyl]phenyl]-2-methyl-pyrazole-3-sulfonamide; 2,2,2-trifluoroacetic acid salt] | 4.98
17 | O=S(=O)(Nc1c(F)cc(C#Cc2cncc(F)c2)cc1F)c1cccc(Cl)c1 [Example 14, 3-chloro-N-[2,6-difluoro-4-[2-(5-fluoro-3-pyridyl)ethynyl]phenyl]benzenesulfonamide] | 5.98
18 | Cc1c(F)cccc1S(=O)(=O)Nc1c(F)cc(C#Cc2cncc(F)c2)cc1F [Example 57, N-[2,6-difluoro-4-[2-(5-fluoro-3-pyridyl)ethynyl]phenyl]-3-fluoro-2-methyl-benzenesulfonamide; 2,2,2-trifluoroacetic acid] | 6.24
19 | Cc1cccc(S(=O)(=O)Nc2c(F)cc(C#Cc3ccccc3)cc2F)c1 [Example 36, N-[2,6-difluoro-4-(2-phenylethynyl)phenyl]-3-methyl-benzenesulfonamide] | 5.30
20 | Cc1ccncc1S(=O)(=O)Nc1c(F)cc(C#Cc2ccccc2)cc1F [Example 31, N-[2,6-difluoro-4-(2-phenylethynyl)phenyl]-4-methyl-pyridine-3-sulfonamide] | 5.85
21 | Cc1cc(Cl)c(C)c(S(=O)(=O)Nc2c(F)cc(C#Cc3cncc(F)c3)cc2F)c1 [Example 54, 3-chloro-N-(2,6-difluoro-4-((5-fluoropyridin-3-yl)ethynyl)phenyl)-2,5-dimethylbenzenesulfonamide 2,2,2-trifluoroacetate] | 6.04
22 | O=S(=O)(Nc1c(F)cc(C#Cc2ccccc2)cc1F)c1cccc(Cl)c1C(F)(F)F [Example 21, 3-chloro-N-[2,6-difluoro-4-(2-phenylethynyl)phenyl]-2-(trifluoromethyl)benzenesulfonamide] | 4.82
23 | Cc1ccc(C)c(S(=O)(=O)Nc2c(F)cc(C#Cc3ccccc3)cc2F)c1 [Example 30, N-[2,6-difluoro-4-(2-phenylethynyl)phenyl]-2,5-dimethyl-benzenesulfonamide] | 5.87
24 | O=S(=O)(Nc1c(F)cc(C#Cc2ccccc2)cc1F)c1ccc(Cl)cc1Cl [Example 11, 2,4-dichloro-N-[2,6-difluoro-4-(2-phenylethynyl)phenyl]benzenesulfonamide] | 4.81
